These are literature values, as cited in patent US7015199B1, “Treatment of psoriasis through down-regulation of the EGF-receptor with topically-applied EGF” (priority 2000, dated 2006).

In this data set the test system is EGF-dependent cancer cell lines. The settings on record: high levels of EGF, in-vitro.

With “epidermal growth factor (NSDSECPLSHDGYCLHDGVCMYIEALDKYACNCVVGYIGERCQYRDLKWWELR; Epidermal growth factor; UniProt P01133 971-1023, looked up) [EGF, epidermal growth factor, ligand of the EGF receptor]”, the “growth of EGF-dependent cancer cell lines” value is “inhibited the growth”.
